Measured values published in patent publication US11622937B2, “Polyphenolic polymer to make water-insoluble molecules become water-soluble” (priority 2015, dated 2023).
Counter-ions that a name gives are not always drawn.

Key:
[1] = estimated; cited from earlier work
[2] = cited from earlier work
[3] = Solubility with Polyphenolic Polymer in water; conditions: molecule formulated with Polyphenolic Polymer
[4] = Comparative study of solubility profile in water (spectrophotometric absorption at 262); format: physicochemical; conditions: 200 ml DI water, filtered 0.45 micron

Row | Solubility with Polyphenolic Polymer in water (more than 99%) [3] | solubility [4] | Structure (SMILES) | solubility in water [1] | Reported Solubility in water [2]
1 | – | – | C=C(c1ccc(C(=O)O)cc1)c1cc2c(cc1C)C(C)(C)CCC2(C)C [Bexarotene, Free Acid (4), Bexarotene] | 10 to 50 µM | Insoluble
2 | Water Soluble | – | Cc1nc2n(c(=O)c1CCN1CCC(c3noc4cc(F)ccc34)CC1)CCCC2O (stereo not drawn) [Paliperidone] | – | Insoluble
3 | Water Soluble | – | COc1cccc2c1C(=O)c1c(O)c3c(c(O)c1C2=O)C[C@@](O)(C(=O)CO)C[C@@H]3O[C@H]1C[C@H](N)[C@H](O)[C@H](C)O1 [Doxorubicin] | – | Insoluble
4 | Water Soluble | – | NC(=O)N1c2ccccc2C=Cc2ccccc21 [Carbamazepine] | – | Insoluble
5 | Water Soluble | – | CC[C@H]1OC(=O)[C@H](C)[C@@H](O[C@H]2C[C@@](C)(OC)[C@@H](O)[C@H](C)O2)[C@H](C)[C@@H](O[C@@H]2O[C@H](C)C[C@H](N(C)C)[C@H]2O)[C@](C)(O)C[C@@H](C)CN(C)[C@H](C)[C@@H](O)[C@]1(C)O [Azithromycin-dihydrate] | – | Insoluble
6 | Water Soluble | – | CO[C@H]1C[C@@H]2CC[C@@H](C)[C@@](O)(O2)C(=O)C(=O)N2CCCC[C@H]2C(=O)O[C@H]([C@H](C)C[C@@H]2CC[C@@H](O)[C@H](OC)C2)CC(=O)[C@H](C)/C=C(\C)[C@@H](O)[C@@H](OC)C(=O)[C@H](C)C[C@H](C)/C=C/C=C/C=C/1C [Rapamycin] | – | Insoluble
7 | Water Soluble | – | CCCCCOC(=O)Nc1nc(=O)n([C@@H]2O[C@H](C)[C@@H](O)[C@H]2O)cc1F [Capecitabine] | – | Insoluble
8 | Water Soluble | – | CN1CCCC(n2nc(Cc3ccc(Cl)cc3)c3ccccc3c2=O)CC1 (stereo not drawn) [Azelastine] | – | Insoluble
9 | Water Soluble | – | C#Cc1cccc(Nc2ncnc3cc(OCCOC)c(OCCOC)cc23)c1 [Erlotinib Monohydrochloride] | – | Insoluble
10 | Water Soluble | – | CC12CCC(CC1=O)C2(C)C (stereo not drawn) [Camphor] | – | Insoluble
11 | Water Soluble | – | COC1=C(OC)C(=O)C(C/C=C(\C)CC/C=C(\C)CC/C=C(\C)CC/C=C(\C)CC/C=C(\C)CC/C=C(\C)CC/C=C(\C)CC/C=C(\C)CC/C=C(\C)CCC=C(C)C)=C(C)C1=O [CoQ10] | – | Insoluble
12 | Water Soluble | – | CC[C@H](C)C(=O)O[C@H]1C[C@H](O)C=C2C=C[C@H](C)[C@H](CC[C@@H](O)C[C@@H](O)CC(=O)O)[C@H]21 [Pravastatin Sodium] | – | Insoluble
13 | – | less than 1% | CC(C)Cc1ccc(C(C)C(=O)O)cc1 (stereo not drawn) [Ibuprofen] | – | Insoluble
14 | Water Soluble | – | Nc1cccc2c1CN(C1CCC(=O)NC1=O)C2=O (stereo not drawn) [Lenalidomide] | – | Insoluble
15 | Water Soluble | – | CCCC1O[C@@H]2C[C@H]3[C@@H]4CCC5=CC(=O)C=C[C@]5(C)[C@H]4[C@@H](O)C[C@]3(C)[C@]2(C(=O)CO)O1 (stereo partly drawn) [Budesonide, 98%, Budesonide] | – | Insoluble
16 | Water Soluble | – | CC(=O)O[C@@]12CO[C@@H]1C[C@H](O)[C@@]1(C)C(=O)[C@H](O)C3=C(C)[C@@H](OC(=O)[C@H](O)[C@@H](NC(=O)OC(C)(C)C)c4ccccc4)C[C@@](O)([C@@H](OC(=O)c4ccccc4)[C@H]21)C3(C)C [Docetaxel] | – | Insoluble
17 | Water Soluble | – | CCC(=O)O[C@]1(C(=O)SCF)[C@H](C)C[C@H]2[C@@H]3C[C@H](F)C4=CC(=O)C=C[C@]4(C)[C@@]3(F)[C@@H](O)C[C@@]21C [Fluticasone Propionate] | – | Insoluble
18 | Water Soluble | – | CCC(C)n1ncn(-c2ccc(N3CCN(c4ccc(OCC5COC(Cn6cncn6)(c6ccc(Cl)cc6Cl)O5)cc4)CC3)cc2)c1=O (stereo not drawn) [Itraconazole] | – | Insoluble
19 | Water Soluble | – | CC[C@H]1OC(=O)[C@H](C)[C@@H](O[C@H]2C[C@@](C)(OC)[C@@H](O)[C@H](C)O2)[C@H](C)[C@@H](O[C@@H]2O[C@H](C)C[C@H](N(C)C)[C@H]2O)[C@](C)(OC)C[C@@H](C)C(=O)[C@H](C)[C@@H](O)[C@]1(C)O [Clarithromycin] | – | Insoluble
20 | Water Soluble | – | CN1C(C(=O)Nc2ccccn2)=C(O)c2ccccc2S1(=O)=O [Piroxicam (pain), Piroxicam] | – | Insoluble
21 | Water Soluble | – | CO[C@H]1/C=C/O[C@@]2(C)Oc3c(C)c(O)c4c(O)c(c(/C=N/N5CCN(C)CC5)c(O)c4c3C2=O)NC(=O)/C(C)=C\C=C\[C@H](C)[C@H](O)[C@@H](C)[C@@H](O)[C@@H](C)[C@H](OC(C)=O)[C@@H]1C [Rifampin] | – | Insoluble
22 | Water Soluble | – | CN(Cc1cnc2nc(N)nc(N)c2n1)c1ccc(C(=O)N[C@@H](CCC(=O)O)C(=O)O)cc1 [Methotrexate] | – | Insoluble

Row | Structure (SMILES) | Solubility with Polyphenolic Polymer in water (more than 99%) [3] | solubility [4] | solubility in water [1] | Reported Solubility in water [2]
23 | CN1C[C@H](C(=O)N[C@]2(C)O[C@@]3(O)[C@@H]4CCCN4C(=O)[C@H](Cc4ccccc4)N3C2=O)C[C@@H]2c3cccc4[nH]cc(c34)C[C@H]21 [Dihydroergotamine Mesylate] | Water Soluble | – | – | Insoluble
24 | CC[C@@]1(O)C(=O)OCc2c1cc1n(c2=O)Cc2cc3ccccc3nc2-1 [Camptothecin] | Water Soluble | – | – | Insoluble
